Patent US20220249523A1, “BENZOAZEPINE COMPOUND-CONTAINING FREEZE-DRIED COMPOSITION” (OTSUKA PHARMACEUTICAL CO., LTD., priority 2019, published 2022)

How the values were obtained:
Assay type in all cases: physicochemical
[1] = Storage stability of freeze-dried compositions: amount of tolvaptan produced (HPLC area normalization); settings: for Amount of tolvaptan produced: freeze-dried composition, compound (1) 0.1 w/v %; for Amount of tolvaptan produced / Amount of tolvaptan produced (%): 60° C. for 1 month; for Amount of tolvaptan produced (%): freeze-dried
Procedure: Aqueous solutions containing compound (1) (0.1 w/v %), mannitol (4 w/v %), and sodium hydroxide (q.s.) were prepared (pH 7, 7.5, 8, 8.5, or 9) using a 20 mM disodium hydrogen phosphate buffer.
The aqueous solutions were each placed in a 2-mL glass vial, and frozen to a temperature of −40° C. or lower. Thereafter, the vials were depressurized to vacuum, and water was removed during freeze-drying to thus obtain freeze-dried compositions. The resulting products were stored at 40° C. for 3 months, or at 60° C. for 1 month; and then reconstituted with the same amount of water as that removed by freeze-drying, to return the products back to aqueous solutions. The amount of total degradation products or tolvaptan produced (%) in each of the obtained aqueous solutions was determined by the HPLC area normalization method.
Freeze-dried compositions were prepared in the same manner as in the “Analysis 1: Stability of Freeze-Dried Formulation of Compound (1)” section above using additives other than mannitol, i.e., NaCl, sorbitol, sucrose, maltose, trehalose, or lactose. Here, the pH of the aqueous solutions before preparing freeze-dried compositions was adjusted to 8.5. However, for lactose, the pH of the aqueous solution before preparing a freeze-dried composition was adjusted to 9.0 with a 24 mM sodium hydrogen carbonate buffer.
After the obtained freeze-dried compositions were stored at 60° C. for 1 month, the amount of tolvaptan produced was determined by the HPLC area normalization method, and the stability of compound (1) in each composition was analyzed. […] The reduction was particularly remarkable with sucrose, maltose, and lactose. Additionally, after storage at 60° C. for 1 week of the aqueous solutions before preparing freeze-dried compositions, the stability of compound (1) in each composition was analyzed. […] The results confirmed that the use of maltose or lactose increased the amount of tolvaptan produced (%).
Aqueous solutions with a pH of 7.5, 8, 8.5, or 9 were prepared in the same manner as in the “Analysis 2: Stability of Freeze-Dried Formulation of Compound (1)” section above, except that compound A at a concentration of 0.541 w/v % and sucrose at a concentration of 7.5 w/v % were used. The resulting aqueous solutions were freeze-dried to obtain freeze-dried compositions. The freeze-dried compositions were stored at 60° C. for 1 month. Thereafter, the amount of tolvaptan produced (%) was determined by the HPLC area normalization method.
An aqueous solution with a pH of 8.5 was prepared in the same manner as in the “Analysis 1: Stability of Freeze-Dried Formulation of Compound A” section above, using potassium phosphate instead of sodium phosphate as a buffering agent. Further, a freeze-dried composition was prepared to analyze the stability of compound A in the freeze-dried composition (after storage at 60° C. for 1 month). The amount of tolvaptan produced (%) was 0.07%, which was the same as when sodium phosphate was used.
Aqueous solutions with a pH of 8.0 were prepared in the same manner as in the “Analysis 1: Stability of Freeze-Dried Formulation of Compound A” section above, such that the sucrose concentration was 1%, 2%, 4%, or 7.5%. Further, the freeze-dried compositions were prepared to analyze the stability of compound A in the freeze-dried compositions (after storage at 60° C. for 1 month). The amount of tolvaptan produced (%) was 0.25% when the sucrose concentration was 1%, 0.12% when the sucrose concentration was 2%, 0.08% when the sucrose concentration was 4%, and 0.10% when the sucrose concentration was 7.5%.
In addition to the aqueous solution containing sodium phosphate at a concentration of 20 mM and having a pH of 8.5, aqueous solutions containing sodium phosphate at a concentration of 10 mM or 50 mM were also prepared as in the same manner as the “Analysis 1: Stability of Freeze-Dried Formulation of Compound A” section above. […]

[2] = Stability of phosphate ester bond in aqueous solution on high-pressure steam sterilization (HPLC area normalization); settings: 0.1 w/v % aqueous solution, 121° C., 20 minutes
Procedure: Aqueous solutions containing compound (1) at a concentration of 0.1 w/v % were prepared, and the stability of the aqueous solutions when subjected to high-pressure steam sterilization (121° C., 20 minutes) was analyzed. The aqueous solutions were prepared using a 100 mM sodium phosphate buffer or a 100 mM Tris buffer. The pH of the aqueous solutions prepared using each of the buffers was adjusted with sodium hydroxide to prepare solutions with different pHs. After the treatment, the purity of compound (1) and the amount of tolvaptan produced were determined by the HPLC area normalization method.

[3] = Solubility in water of compound (1) and its metal salts
Procedure: (§1) The stability of these metal salts in a solid state was analyzed. […] Additionally, the solubility in water was analyzed.

[4] = Stability of metal salts of compound (1) in a solid state; settings: compared to compound (1)
Procedure: as §1

[5] = pH at reconstitution with water of stored freeze-dried compositions; settings: initial pH 8.5
Procedure: In addition to the aqueous solution containing sodium phosphate at a concentration of 20 mM and having a pH of 8.5, aqueous solutions containing sodium phosphate at a concentration of 10 mM or 50 mM were also prepared as in the same manner as the “Analysis 1: Stability of Freeze-Dried Formulation of Compound A” section above. Further, freeze-dried compositions were prepared to analyze the stability of compound A in the freeze-dried compositions (after storage at 60° C. for 1 month, or at 40° C. for 3 months). Thereafter, the pH at the time of reconstitution with water was analyzed.

[6] = Appearance on reconstitution of freeze-dried compositions with water (foaming, cloudiness); settings: freeze-dried compositions with a sucrose concentration of 4% or 7.5%, pH 8.0

## Cc1ccccc1C(=O)Nc1ccc(C(=O)N2CCCC(OP(=O)(O)O)c3cc(Cl)ccc32)c(C)c1 (stereo not drawn) [compound (1)]
[1]; mannitol 4 w/v %, solution pH 8.5
  Amount of tolvaptan produced: 1.45%
[1]; mannitol 4 w/v %, solution pH 9
  Amount of tolvaptan produced: 0.9%
[1]; mannitol 4 w/v %, solutions with a pH exceeding 8, storage at 60° C.
  Stability in freeze-dried compositions: relatively stable
[2]; sodium phosphate buffer having a pH of 7.5 or more
  Stability of phosphate ester bond on high-pressure steam sterilization: highly stable
[2]; tolvaptan formed as a precipitate
  Stability of phosphate ester bond on high-pressure steam sterilization: hydrolyzed
[3]
  Solubility in water: 0.14 w/v %

## [O-][n+]1ccccc1[S-].[O-][n+]1ccccc1[S-].[Zn+2] [Zinc salt]
[4]
  Stability in a solid state: remarkably improved stability
[3]
  Solubility in water: 0.003 w/v %

## Cc1ccccc1C(=O)Nc1ccc(C(=O)N2CCCC(OP(=O)([O-])[O-])c3cc(Cl)ccc32)c(C)c1.[Na+].[Na+] (stereo not drawn) [compound A]
[5]; sodium phosphate 10 mM
  pH at 40° C. 3 months later: 8.16
  pH at 60° C. 1 month later: 8.24
[5]; sodium phosphate 20 mM
  pH at 40° C. 3 months later: 8.24
  pH at 60° C. 1 month later: 8.34
[5]; sodium phosphate 50 mM
  pH at 40° C. 3 months later: 8.30
  pH at 60° C. 1 month later: 8.36
[1]; compound A 0.541 w/v %, sucrose 7.5 w/v %, 20 mM sodium phosphate, pH 7.5
  Amount of tolvaptan produced (%): 0.22%
[1]; compound A 0.541 w/v %, sucrose 7.5 w/v %, 20 mM sodium phosphate, pH 8
  Amount of tolvaptan produced (%): 0.10%
[1]; compound A 0.541 w/v %, sucrose 7.5 w/v %, 20 mM sodium phosphate, pH 8.5
  Amount of tolvaptan produced (%): 0.07%
[1]; compound A 0.541 w/v %, sucrose 7.5 w/v %, 20 mM sodium phosphate, pH 9
  Amount of tolvaptan produced (%): below the detection limit
[1]; compound A, pH 8.0, sucrose concentration 1%
  Amount of tolvaptan produced (%): 0.25%
[1]; compound A, pH 8.0, sucrose concentration 2%
  Amount of tolvaptan produced (%): 0.12%
[1]; compound A, pH 8.0, sucrose concentration 4%
  Amount of tolvaptan produced (%): 0.08%
[1]; compound A, sucrose 7.5 w/v %, pH 8.5, sodium phosphate 10 mM
  Amount of tolvaptan produced (%): 0.07%
[1]; compound A, sucrose 7.5 w/v %, pH 8.5, sodium phosphate 50 mM
  Amount of tolvaptan produced (%): below the detection limit
[1]; compound A, sucrose 7.5 w/v %, potassium phosphate instead of sodium phosphate, pH 8.5
  Amount of tolvaptan produced (%): 0.07%
[6]
  Appearance when reconstituted with water: foaming and slight cloudiness were observed
[4]
  Stability in a solid state: remarkably improved stability
[3]
  Solubility in water: ≥ 4 w/v %
